Molecular target: human NaV 1.8 (Homo sapiens, UniProt Q9Y5Y9)
Experiment: E-VIPR assay for detecting and measuring NaV inhibition properties
Type: cell-based
Settings: E-VIPR assay conducted in the presence of human serum; HEK cells expressing truncated human NaV 1.8; read-out: IC50
In short: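 HEK cells with truncated human NaV1.8 plus KIR2.1 BacMam, hexyl dye loaded 20 min, compound 30 min at room temperature, 11-point 3-fold series […], 0.625% DMSO, with or without human serum. E-VIPR biphasic stimulation at 10 Hz for 10 s; membrane-potential response read as normalized coumarin/oxonol ratio.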

human NaV 1.8, sequence (Q9Y5Y9 whole entry, looked up): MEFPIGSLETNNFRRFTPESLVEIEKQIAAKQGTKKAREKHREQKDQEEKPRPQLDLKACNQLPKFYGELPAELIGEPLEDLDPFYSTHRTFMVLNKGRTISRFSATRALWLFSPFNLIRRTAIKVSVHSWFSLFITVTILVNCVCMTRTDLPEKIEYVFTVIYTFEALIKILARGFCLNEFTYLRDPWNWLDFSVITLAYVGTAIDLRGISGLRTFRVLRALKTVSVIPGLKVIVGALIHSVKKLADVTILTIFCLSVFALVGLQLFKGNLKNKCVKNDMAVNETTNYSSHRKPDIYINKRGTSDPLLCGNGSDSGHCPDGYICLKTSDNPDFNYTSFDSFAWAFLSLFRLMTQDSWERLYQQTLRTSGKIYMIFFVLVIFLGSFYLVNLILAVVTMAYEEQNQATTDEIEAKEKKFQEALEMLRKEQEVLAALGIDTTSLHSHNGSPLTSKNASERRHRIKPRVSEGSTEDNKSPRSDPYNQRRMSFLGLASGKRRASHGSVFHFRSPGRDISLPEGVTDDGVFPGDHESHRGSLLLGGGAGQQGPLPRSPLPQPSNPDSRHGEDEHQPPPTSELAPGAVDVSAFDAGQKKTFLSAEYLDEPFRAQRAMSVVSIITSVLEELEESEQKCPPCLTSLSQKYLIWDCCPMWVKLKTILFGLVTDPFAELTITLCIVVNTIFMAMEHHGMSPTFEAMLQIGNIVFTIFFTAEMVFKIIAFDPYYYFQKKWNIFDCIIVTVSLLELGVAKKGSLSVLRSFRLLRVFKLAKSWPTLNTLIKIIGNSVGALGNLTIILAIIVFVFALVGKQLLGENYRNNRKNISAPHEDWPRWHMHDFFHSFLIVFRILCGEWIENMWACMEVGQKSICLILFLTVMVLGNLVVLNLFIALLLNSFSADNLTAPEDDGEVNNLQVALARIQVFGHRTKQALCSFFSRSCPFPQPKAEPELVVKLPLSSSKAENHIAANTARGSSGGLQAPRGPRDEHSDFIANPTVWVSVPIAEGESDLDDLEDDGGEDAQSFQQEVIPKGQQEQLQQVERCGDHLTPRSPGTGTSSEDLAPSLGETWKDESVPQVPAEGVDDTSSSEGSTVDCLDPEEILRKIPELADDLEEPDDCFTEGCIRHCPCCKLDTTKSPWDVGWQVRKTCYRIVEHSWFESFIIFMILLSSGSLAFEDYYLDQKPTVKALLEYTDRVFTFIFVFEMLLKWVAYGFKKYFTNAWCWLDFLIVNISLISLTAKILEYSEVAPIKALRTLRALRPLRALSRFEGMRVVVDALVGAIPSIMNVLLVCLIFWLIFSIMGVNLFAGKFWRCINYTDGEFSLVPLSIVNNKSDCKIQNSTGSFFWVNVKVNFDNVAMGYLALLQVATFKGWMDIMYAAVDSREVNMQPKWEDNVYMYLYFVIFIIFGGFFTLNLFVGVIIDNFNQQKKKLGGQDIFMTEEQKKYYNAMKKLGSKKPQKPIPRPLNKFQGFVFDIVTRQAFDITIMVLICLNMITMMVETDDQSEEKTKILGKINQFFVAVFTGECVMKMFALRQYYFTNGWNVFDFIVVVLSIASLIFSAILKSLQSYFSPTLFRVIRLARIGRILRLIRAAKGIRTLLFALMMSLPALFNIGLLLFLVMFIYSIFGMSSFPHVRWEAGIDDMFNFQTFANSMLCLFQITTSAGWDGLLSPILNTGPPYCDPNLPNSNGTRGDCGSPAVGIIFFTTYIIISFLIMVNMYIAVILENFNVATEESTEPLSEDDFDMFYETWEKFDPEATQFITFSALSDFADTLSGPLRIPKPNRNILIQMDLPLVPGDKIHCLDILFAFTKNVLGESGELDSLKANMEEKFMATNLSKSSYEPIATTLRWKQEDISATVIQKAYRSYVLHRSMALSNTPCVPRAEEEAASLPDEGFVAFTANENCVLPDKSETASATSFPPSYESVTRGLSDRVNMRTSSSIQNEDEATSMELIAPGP

IC50 | Structure (SMILES)
13 nM | [2H]C([2H])([2H])Oc1cc(OC(F)(F)F)ccc1Oc1cc(C2=CCCC2)cc(F)c1C(=O)Nc1ccnc(C(N)=O)c1 [Compound 1010, 4-[[4-(cyclopenten-1-yl)-2-fluoro-6-[2-(trideuteriomethoxy)-4-(trifluoromethoxy)phenoxy]benzoyl]amino]pyridine-2-carboxamide]
470 nM | [2H]C([2H])([2H])Oc1cc(OC(F)(F)F)ccc1Oc1cc(-c2cccc(C#N)c2)cc(F)c1C(=O)Nc1ccnc(C(N)=O)c1 [Compound 1011, 4-[[4-(3-cyanophenyl)-2-fluoro-6-[2-(trideuteriomethoxy)-4-(trifluoromethoxy)phenoxy]benzoyl]amino]pyridine-2-carboxamide]
190 nM | [2H]C([2H])([2H])Oc1cc(OC(F)(F)F)ccc1Oc1cc(-c2ccc(C#N)cc2)cc(F)c1C(=O)Nc1ccnc(C(N)=O)c1 [Compound 1012, 4-[[4-(4-cyanophenyl)-2-fluoro-6-[2-(trideuteriomethoxy)-4-(trifluoromethoxy)phenoxy]benzoyl]amino]pyridine-2-carboxamide]
13 nM | COc1cc(OC(F)(F)F)ccc1Oc1cc(C2=CCC(C(F)(F)F)CC2)cc(F)c1C(=O)Nc1ccnc(C(N)=O)c1 (centres unmarked) [Compound 1013, 4-[[2-fluoro-6-[2-methoxy-4-(trifluoromethoxy)phenoxy]-4-[4-(trifluoromethyl)cyclohexen-1-yl]benzoyl]amino]pyridine-2-carboxamide]
33 nM | COc1cc(OC(F)(F)F)ccc1Oc1cc(C2=CC3CCC2C3)cc(F)c1C(=O)Nc1ccnc(C(N)=O)c1 (centres unmarked) [Compound 1014, 4-[[4-(2-bicyclo[2.2.1]hept-2-enyl)-2-fluoro-6-[2-methoxy-4-(trifluoromethoxy)phenoxy]benzoyl]amino]pyridine-2-carboxamide]
360 nM | COc1cc(OC(F)(F)F)ccc1Oc1cc(C2=CCC3(CC2)OCCO3)cc(F)c1C(=O)Nc1ccnc(C(N)=O)c1 [Compound 1015, 4-[[4-(1,4-dioxaspiro[4.5]dec-7-en-8-yl)-2-fluoro-6-[2-methoxy-4-(trifluoromethoxy)phenoxy]benzoyl]amino]pyridine-2-carboxamide]
60 nM | COc1cc(OC(F)(F)F)ccc1Oc1cc(C2=CCC(C(C)(C)C)CC2)cc(F)c1C(=O)Nc1ccnc(C(N)=O)c1 (centres unmarked) [Compound 1016, 4-[[4-(4-tert-butylcyclohexen-1-yl)-2-fluoro-6-[2-methoxy-4-(trifluoromethoxy)phenoxy]benzoyl]amino]pyridine-2-carboxamide]
130 nM | [2H]C([2H])([2H])Oc1cc(OC(F)(F)F)ccc1Oc1cc(C2CCOC2)cc(F)c1C(=O)Nc1ccnc(C(N)=O)c1 (centres unmarked) [Compound 1018, 4-[[2-fluoro-4-tetrahydrofuran-3-yl-6-[2-(trideuteriomethoxy)-4-(trifluoromethoxy)phenoxy]benzoyl]amino]pyridine-2-carboxamide]
79 nM | [2H]C([2H])([2H])Oc1cc(OC(F)(F)F)ccc1Oc1cc(C2CCOCC2)cc(F)c1C(=O)Nc1ccnc(C(N)=O)c1 [Compound 1019, 4-[[2-fluoro-4-tetrahydropyran-4-yl-6-[2-(trideuteriomethoxy)-4-(trifluoromethoxy)phenoxy]benzoyl]amino]pyridine-2-carboxamide]
9 nM | COc1cc(OC(F)(F)F)ccc1Oc1cc(C2CC3CCC2C3)cc(F)c1C(=O)Nc1ccnc(C(N)=O)c1 (centres unmarked) [Compound 1020, 4-[[2-fluoro-6-[2-methoxy-4-(trifluoromethoxy)phenoxy]-4-norboman-2-yl-benzoyl]amino]pyridine-2-carboxamide]
41 nM | [2H]C([2H])([2H])Oc1cc(OC(F)(F)F)ccc1Oc1cc(C#CCC(C)C)cc(F)c1C(=O)Nc1ccnc(C(N)=O)c1 [Compound 1021, 4-[[2-fluoro-4-(4-methylpent-1-ynyl)-6-[2-(trideuteriomethoxy)-4-(trifluoromethoxy)phenoxy]benzoyl]amino]pyridine-2-carboxamide]
190 nM | [2H]C([2H])([2H])Oc1cc(OC(F)(F)F)ccc1Oc1cc(C#CC(C)(C)C)cc(F)c1C(=O)Nc1ccnc(C(N)=O)c1 [Compound 1022]
100 nM | [2H]C([2H])([2H])Oc1cc(OC(F)(F)F)ccc1Oc1cc(C#CC2CC2)cc(F)c1C(=O)Nc1ccnc(C(N)=O)c1 [Compound 1023]
150 nM | [2H]C([2H])([2H])Oc1cc(OC(F)(F)F)ccc1Oc1cc(C#CC2CCC2)cc(F)c1C(=O)Nc1ccnc(C(N)=O)c1 [Compound 1024]
2 nM | COc1cc(OC(F)(F)F)ccc1Oc1ccc(C(F)(F)F)c(SC)c1C(=O)Nc1ccnc(C(N)=O)c1 [Compound 1025, 4-[[6-[2-methoxy-4-(trifluoromethoxy)phenoxy]-2-methylsulfanyl-3-(trifluoromethyl)benzoyl]amino]pyridine-2-carboxamide]
> 3000 nM | COc1cc(OC(F)(F)F)ccc1Oc1ccc(C(F)(F)F)c(OCCN(C)C)c1C(=O)Nc1ccnc(C(N)=O)c1 [Compound 1027]
590 nM | COc1cc(OC(F)(F)F)ccc1Oc1ccc(C(F)(F)F)c(OCCC2CC2)c1C(=O)Nc1ccnc(C(N)=O)c1 [Compound 1028]
695 nM | COc1cc(OC(F)(F)F)ccc1Oc1cc(C2=CCC(C(F)(F)F)CC2)ccc1C(=O)Nc1ccnc(C(N)=O)c1 (centres unmarked) [Compound 1029, 4-[[2-[2-methoxy-4-(trifluoromethoxy)phenoxy]-4-[4-(trifluoromethyl)cyclohexen-1-yl]benzoyl]amino]pyridine-2-carboxamide]
330 nM | COc1cc(OC(F)(F)F)ccc1Oc1cc(C2=CCOC2)ccc1C(=O)Nc1ccnc(C(N)=O)c1 [Compound 1030]
2050 nM | COc1cc(OC(F)(F)F)ccc1Oc1cc(C2=CCC(C(F)(F)F)CC2)ccc1C(=O)Nc1ccnc(C(N)=O)c1 (centres unmarked) [Compound 1031]
840 nM | COc1cc(OC(F)(F)F)ccc1Oc1cc(C2CCOC2)ccc1C(=O)Nc1ccnc(C(N)=O)c1 (centres unmarked) [Compound 1033]
160 nM | COc1cc(OC(F)(F)F)ccc1Oc1cc2c(c(F)c1C(=O)Nc1ccc(C(N)=O)nc1)OCCO2 [Compound 1034, 5-[[5-fluoro-7-[2-methoxy-4-(trifluoromethoxy)phenoxy]-2,3-dihydro-1,4-benzodioxine-6-carbonyl]amino]pyridine-2-carboxamide]
17 nM | COc1cc(OC(F)(F)F)ccc1Oc1cc2c(c(F)c1C(=O)Nc1ccnc(C(N)=O)c1)OCCO2 [Compound 1035]
1750 nM | [2H]C([2H])([2H])Oc1cc(OC(F)(F)F)ccc1Oc1cc2c(cc1C(=O)Nc1ccnc(C(N)=O)c1)OCCO2 [Compound 1036, 4-[[6-[2-(trideuteriomethoxy)-4-(trifluoromethoxy)phenoxy]-2,3-dihydro-1,4-benzodioxine-7-carbonyl]amino]pyridine-2-carboxamide]
> 3000 nM | [2H]C([2H])([2H])Oc1cc(OC(F)(F)F)ccc1Oc1cc2c(cc1C(=O)Nc1ccc(C(N)=O)nc1)OCCO2 [Compound 1037]
170 nM | COc1cc(OC(F)(F)F)ccc1Oc1cc(OC2C=C(F)C2)cc(C)c1C(=O)Nc1ccnc(C(N)=O)c1 (centres unmarked) [Compound 1038, 4-[[4-(3-fluorocyclobut-2-en-1-yl)oxy-2-[2-methoxy-4-(trifluoromethoxy)phenoxy]-6-methyl-benzoyl]amino]pyridine-2-carboxamide]
